Assay results from PubChem BioAssay (NCI).
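Following 48 hours of exposure in 96-well plates, responses at five concentrations were used to interpolate endpoints linearly. The concentration for full growth arrest is given as TGI.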

Tests used:
Assay in all cases: NCI-60 cell line screen, 48 h
A498 renal = test system: A498 renal
SK-MEL-28 melanoma = test system: SK-MEL-28 melanoma
SK-MEL-5 melanoma = test system: SK-MEL-5 melanoma
SK-OV-3 ovarian = test system: SK-OV-3 ovarian
KM12 colon = test system: KM12 colon
NCI/ADR-RES ovarian = test system: NCI/ADR-RES ovarian
NCI-H226 lung = test system: NCI-H226 lung
RXF 393 renal = test system: RXF 393 renal
HT29 colon = test system: HT29 colon
TK-10 renal = test system: TK-10 renal
HCT-15 colon = test system: HCT-15 colon
A549 NSCLC = test system: A549 NSCLC
MDA-N = test system: MDA-N
M14 melanoma = test system: M14 melanoma
MDA-MB-435 = test system: MDA-MB-435
OVCAR-3 ovarian = test system: OVCAR-3 ovarian
SW-620 colon = test system: SW-620 colon
SF-539 CNS = test system: SF-539 CNS
DU-145 prostate = test system: DU-145 prostate
MALME-3M melanoma = test system: MALME-3M melanoma
UO-31 renal = test system: UO-31 renal
T-47D breast = test system: T-47D breast
ACHN renal = test system: ACHN renal
HL-60(TB) leukemia = test system: HL-60(TB) leukemia
HOP-92 NSCLC = test system: HOP-92 NSCLC
K-562 leukemia = test system: K-562 leukemia
OVCAR-4 ovarian = test system: OVCAR-4 ovarian
HCC-2998 colon = test system: HCC-2998 colon
NCI-H23 lung = test system: NCI-H23 lung
786-0 renal = test system: 786-0 renal
MDA-MB-231 breast = test system: MDA-MB-231 breast
CAKI-1 renal = test system: CAKI-1 renal
LOX IMVI melanoma = test system: LOX IMVI melanoma
SF-268 CNS = test system: SF-268 CNS
COLO 205 colon = test system: COLO 205 colon
NCI-H522 lung = test system: NCI-H522 lung
OVCAR-8 ovarian = test system: OVCAR-8 ovarian
NCI-H460 lung = test system: NCI-H460 lung
SN12C renal = test system: SN12C renal
SF-295 CNS = test system: SF-295 CNS
SNB-75 CNS = test system: SNB-75 CNS
SK-MEL-2 melanoma = test system: SK-MEL-2 melanoma
UACC-257 melanoma = test system: UACC-257 melanoma
EKVX NSCLC = test system: EKVX NSCLC
CCRF-CEM leukemia = test system: CCRF-CEM leukemia
HCT-116 colon = test system: HCT-116 colon
PC-3 prostate = test system: PC-3 prostate
MOLT-4 leukemia = test system: MOLT-4 leukemia
IGROV1 ovarian = test system: IGROV1 ovarian
SNB-19 CNS = test system: SNB-19 CNS
SR leukemia = test system: SR leukemia
U251 CNS = test system: U251 CNS
HOP-62 NSCLC = test system: HOP-62 NSCLC
OVCAR-5 ovarian = test system: OVCAR-5 ovarian
UACC-62 melanoma = test system: UACC-62 melanoma
RPMI-8226 leukemia = test system: RPMI-8226 leukemia
MCF7 breast = test system: MCF7 breast

Which results are given for `O=c1c2ccccc2n2c(-c3ccc(O)cc3)nnc2n1-c1ccccc1`?
TGI (A498 renal): 31.6 µM; TGI (SK-MEL-28 melanoma): 43.3 µM; TGI (SK-MEL-5 melanoma): 37.2 µM; TGI (SK-OV-3 ovarian): 38.3 µM; TGI (KM12 colon): > 100 µM; TGI (NCI/ADR-RES ovarian): 48.5 µM; TGI (NCI-H226 lung): 53.6 µM; TGI (RXF 393 renal): 39.4 µM; TGI (HT29 colon): 43.9 µM; TGI (TK-10 renal): 43.5 µM; TGI (HCT-15 colon): 50.7 µM; TGI (A549 NSCLC): 38.6 µM; TGI (MDA-N): 34.1 µM; TGI (M14 melanoma): 39.8 µM; TGI (MDA-MB-435): 36.2 µM; TGI (OVCAR-3 ovarian): 39.5 µM; TGI (SW-620 colon): 29.8 µM; TGI (SF-539 CNS): 33.9 µM; TGI (DU-145 prostate): 40.1 µM; TGI (MALME-3M melanoma): 42.6 µM; TGI (UO-31 renal): 6.83 µM; TGI (T-47D breast): 34.8 µM; TGI (ACHN renal): 30 µM; TGI (HL-60(TB) leukemia): > 100 µM; TGI (HOP-92 NSCLC): 45.6 µM; TGI (K-562 leukemia): 26.2 µM; TGI (OVCAR-4 ovarian): 45.3 µM; TGI (HCC-2998 colon): > 100 µM; TGI (NCI-H23 lung): 37.7 µM; TGI (786-0 renal): 33.7 µM; TGI (MDA-MB-231 breast): 40.3 µM; TGI (CAKI-1 renal): 65 µM; TGI (LOX IMVI melanoma): 55.4 µM; TGI (SF-268 CNS): 38.9 µM; TGI (COLO 205 colon): > 100 µM; TGI (NCI-H522 lung): 38.8 µM; TGI (OVCAR-8 ovarian): 90.6 µM; TGI (NCI-H460 lung): 40 µM; TGI (SN12C renal): 32.2 µM; TGI (SF-295 CNS): 31.5 µM; TGI (SNB-75 CNS): 38.5 µM; TGI (SK-MEL-2 melanoma): 40.9 µM; TGI (UACC-257 melanoma): 41.8 µM; TGI (EKVX NSCLC): 34.7 µM; TGI (CCRF-CEM leukemia): 51.3 µM; TGI (HCT-116 colon): 41.2 µM; TGI (PC-3 prostate): 33.6 µM; TGI (MOLT-4 leukemia): > 100 µM; TGI (IGROV1 ovarian): 34.9 µM; TGI (SNB-19 CNS): 39.7 µM; TGI (SR leukemia): 46.2 µM; TGI (U251 CNS): 32.4 µM; TGI (HOP-62 NSCLC): 41 µM; TGI (OVCAR-5 ovarian): > 100 µM; TGI (UACC-62 melanoma): 38.9 µM

With `C[C@]12CCC(N3CCCC3)CC1=CC[C@@H]1[C@@H]2CC[C@]2(C)C(O)[C@H](n3ccnc3)C[C@@H]12` (some centres undefined) as the compound, how does the TGI (A498 renal) read?
The TGI was greater than 100 µM.

What about the TGI (SK-MEL-28 melanoma) of the same compound?
Its TGI is 68.5 µM.

What about the TGI (SK-MEL-5 melanoma) of the same compound?
Its TGI is greater than 100 µM.

What about the TGI (NCI/ADR-RES ovarian) of the same compound?
Its TGI is greater than 100 µM.

What about the TGI (NCI-H226 lung) of the same compound?
The TGI was greater than 100 µM.

What about the TGI (RXF 393 renal) of the same compound?
The TGI was 72.8 µM.

And the TGI (HT29 colon)?
The TGI was greater than 100 µM.

And the TGI (TK-10 renal)?
The TGI was greater than 100 µM.

What about the TGI (HCT-15 colon) of the same compound?
Its TGI is greater than 100 µM.

And the TGI (A549 NSCLC)?
Its TGI is greater than 100 µM.

What about the TGI (MDA-N) of the same compound?
Its TGI is greater than 100 µM.

And the TGI (M14 melanoma)?
Its TGI is 34.4 µM.

And the TGI (RPMI-8226 leukemia)?
Its TGI is greater than 100 µM.

And the TGI (MDA-MB-435)?
The TGI was greater than 100 µM.

What about the TGI (OVCAR-3 ovarian) of the same compound?
Its TGI is greater than 100 µM.

And the TGI (SW-620 colon)?
The TGI was greater than 100 µM.

What about the TGI (SF-539 CNS) of the same compound?
Its TGI is 46.5 µM.

And the TGI (DU-145 prostate)?
Its TGI is greater than 100 µM.

What about the TGI (UO-31 renal) of the same compound?
Its TGI is greater than 100 µM.

What about the TGI (ACHN renal) of the same compound?
The TGI was greater than 100 µM.

What about the TGI (HL-60(TB) leukemia) of the same compound?
Its TGI is 36.1 µM.

What about the TGI (HOP-92 NSCLC) of the same compound?
Its TGI is greater than 100 µM.

And the TGI (K-562 leukemia)?
The TGI was greater than 100 µM.

What about the TGI (OVCAR-4 ovarian) of the same compound?
Its TGI is greater than 100 µM.

What about the TGI (NCI-H23 lung) of the same compound?
Its TGI is greater than 100 µM.

And the TGI (786-0 renal)?
The TGI was greater than 100 µM.

And the TGI (MDA-MB-231 breast)?
Its TGI is greater than 100 µM.

What about the TGI (CAKI-1 renal) of the same compound?
The TGI was greater than 100 µM.

What about the TGI (LOX IMVI melanoma) of the same compound?
Its TGI is greater than 100 µM.

What about the TGI (COLO 205 colon) of the same compound?
Its TGI is greater than 100 µM.

And the TGI (NCI-H522 lung)?
Its TGI is greater than 100 µM.

And the TGI (OVCAR-8 ovarian)?
Its TGI is greater than 100 µM.

And the TGI (NCI-H460 lung)?
Its TGI is greater than 100 µM.

What about the TGI (SN12C renal) of the same compound?
The TGI was greater than 100 µM.

And the TGI (SF-295 CNS)?
Its TGI is greater than 100 µM.

And the TGI (SK-MEL-2 melanoma)?
The TGI was greater than 100 µM.

And the TGI (UACC-257 melanoma)?
Its TGI is greater than 100 µM.

And the TGI (EKVX NSCLC)?
Its TGI is greater than 100 µM.

And the TGI (MCF7 breast)?
Its TGI is greater than 100 µM.

And the TGI (CCRF-CEM leukemia)?
Its TGI is greater than 100 µM.

And the TGI (HCT-116 colon)?
Its TGI is greater than 100 µM.

What about the TGI (PC-3 prostate) of the same compound?
The TGI was greater than 100 µM.

What about the TGI (MOLT-4 leukemia) of the same compound?
The TGI was 83.6 µM.

What about the TGI (IGROV1 ovarian) of the same compound?
The TGI was greater than 100 µM.

And the TGI (SNB-19 CNS)?
The TGI was greater than 100 µM.

And the TGI (SR leukemia)?
The TGI was 43.9 µM.

And the TGI (U251 CNS)?
The TGI was greater than 100 µM.

And the TGI (OVCAR-5 ovarian)?
The TGI was greater than 100 µM.

And the TGI (UACC-62 melanoma)?
The TGI was greater than 100 µM.
